The values that follow come from patent US20170355743A1, “INSULIN RECEPTOR PARTIAL AGONISTS” (Merck Sharp & Dohme Corp., priority 2014, published 2017).

The experiment deals with C57BL/6NTac mice. Briefly: Intraperitoneal Insulin Tolerance Test (IP-ITT). Particulars: intraperitoneal injection, two doses per compound (Table 16), lean male C57BL/6NTac mice, 30 to 360 minutes after dose. In kind it is in vivo. Here is the method: Groups of N=6-8 animals per group were randomized by weight (average about 30 grams). Two days prior to study, the mice were conditioned to dosing with an intraperitoneal injection of 0.9% Sodium Chloride solution at 5 ml/kg dosing volume. On the morning of the study, food was removed two or four hours prior to the study. Blood glucose concentrations were determined at T=0 min (baseline) using a Glucometer. […] Blood glucose levels were determined from tail bleeds taken between 30 to 360 minutes after dose.

With “B29,B29′-suberoyl-(insulin)2 [Compound B, reference compound]”, the “blood glucose profile at low versus high dose” value is reported as “increased glucose lowering potency”.
